We go through 17 molecules from US10202389B2, “Pyrazolopyrimidinyl inhibitors of ubiquitin-activating enzyme” (Millennium Pharmaceuticals, Inc., priority 2012, dated 2019).

For this test, the target named is recombinant human UAE (Homo sapiens (Human), UniProt P22314). Kind of test: Ubiquitin Activating Enzyme (UAE) HTRF Assay. Particulars: read-out: % inhibition @0.111 μM.
Sequence of recombinant human UAE (P22314 whole entry): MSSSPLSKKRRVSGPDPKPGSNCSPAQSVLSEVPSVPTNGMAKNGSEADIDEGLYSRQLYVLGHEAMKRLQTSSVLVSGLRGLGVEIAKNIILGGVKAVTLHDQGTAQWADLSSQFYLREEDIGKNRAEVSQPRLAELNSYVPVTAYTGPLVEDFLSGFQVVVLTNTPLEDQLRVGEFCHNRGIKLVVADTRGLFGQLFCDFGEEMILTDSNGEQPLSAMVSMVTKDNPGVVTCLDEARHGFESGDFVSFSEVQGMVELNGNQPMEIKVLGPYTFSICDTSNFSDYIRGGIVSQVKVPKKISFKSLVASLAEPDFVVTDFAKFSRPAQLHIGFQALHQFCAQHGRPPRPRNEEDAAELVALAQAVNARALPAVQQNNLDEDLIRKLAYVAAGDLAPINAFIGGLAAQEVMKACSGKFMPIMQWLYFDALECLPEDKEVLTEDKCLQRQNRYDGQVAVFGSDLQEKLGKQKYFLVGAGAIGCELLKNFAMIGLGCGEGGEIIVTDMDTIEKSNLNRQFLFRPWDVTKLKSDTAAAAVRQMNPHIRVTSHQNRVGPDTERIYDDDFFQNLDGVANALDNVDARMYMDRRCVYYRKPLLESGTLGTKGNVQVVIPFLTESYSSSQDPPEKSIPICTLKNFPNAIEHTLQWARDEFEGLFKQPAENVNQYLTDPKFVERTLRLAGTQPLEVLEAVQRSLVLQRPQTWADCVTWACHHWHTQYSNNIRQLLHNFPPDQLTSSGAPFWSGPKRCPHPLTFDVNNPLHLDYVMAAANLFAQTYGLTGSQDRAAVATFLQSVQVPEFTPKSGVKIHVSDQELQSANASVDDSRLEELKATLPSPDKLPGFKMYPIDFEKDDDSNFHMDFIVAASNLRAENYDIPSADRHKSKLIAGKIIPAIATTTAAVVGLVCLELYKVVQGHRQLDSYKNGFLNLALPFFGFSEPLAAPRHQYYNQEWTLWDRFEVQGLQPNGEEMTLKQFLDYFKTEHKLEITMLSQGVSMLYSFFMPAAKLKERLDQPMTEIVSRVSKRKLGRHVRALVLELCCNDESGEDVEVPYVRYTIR

Experimental: After incubation for 120 minutes, quantification of the FRET is performed on the Pherostar (BMG).
For compounds whose values are marked with an asterisk (*), mouse UAE was used. For all other compounds, human UAE was used.

What is called inhibition is the drop in the measured response relative to a control, in per cent. Take `NS(=O)(=O)OC[C@H]1C[C@@H](Nc2ccnc3cc(-c4csc5ccc(F)cc45)nn23)[C@H](O)[C@@H]1O` (relative stereo) [Compound I-081, (rac)-((1R,2R,3S,4R)-4-(2-(5-fluorobenzo[b]thiophen-3-yl)pyrazolo[1,5-a]pyrimidin-7-ylamino)-2,3-dihydroxycyclopentyl)methyl rel-sulfamate]: the inhibition at 0.111 µM is 100%.

As for `COC(C)(C)c1cccc(-c2cc3nccc(N[C@@H]4C[C@H](COS(N)(=O)=O)[C@@H](O)[C@H]4O)n3n2)c1` (relative stereo) [Compound I-082, (rac)-((1R,2R,3S,4R)-2,3-dihydroxy-4-(2-(3-(2-methoxypropan-2-yl)phenyl)pyrazolo[1,5-a]pyrimidin-7-ylamino)cyclopentyl)methyl rel-sulfamate], the inhibition at 0.111 µM amounted to 100%. Regarding `C#Cc1cccc(-c2cc3nccc(N[C@@H]4C[C@H](COS(N)(=O)=O)[C@@H](O)[C@H]4O)n3n2)c1` (relative stereo) [Compound I-083, (rac)-[(1R,2R,3S,4R)-4-{[2-(3-ethynylphenyl)pyrazolo[1,5-a]pyrimidin-7-yl]amino}-2,3-dihydroxycyclopentyl]methyl rel-sulfamate], the inhibition at 0.111 µM was 100%. Regarding `CCOC(C)(C)c1cccc(-c2cc3nccc(N[C@@H]4C[C@H](COS(N)(=O)=O)[C@@H](O)[C@H]4O)n3n2)c1` (relative stereo) [Compound I-084, (rac)-((1R,2R,3S,4R)-4-(2-(3-(2-ethoxypropan-2-yl)phenyl)pyrazolo[1,5-a]pyrimidin-7-ylamino)-2,3-dihydroxycyclopentyl)methyl rel-sulfamate], the inhibition at 0.111 µM was 100%.

Regarding `NS(=O)(=O)OC[C@H]1C[C@@H](Nc2ccnc3cc(-c4ccc5c(c4)C(=O)c4ccccc4-5)nn23)[C@H](O)[C@@H]1O` (relative stereo) [Compound I-085, (rac)-((1R,2R,3S,4R)-2,3-dihydroxy-4-(2-(9-oxo-9H-fluoren-2-yl)pyrazolo[1,5-a]pyrimidin-7-ylamino)cyclopentyl)methyl rel-sulfamate], the inhibition at 0.111 µM stood at 99%. For the molecule `NS(=O)(=O)OC[C@H]1C[C@@H](Nc2ccnc3cc(-c4cc5ccccc5o4)nn23)[C@H](O)[C@@H]1O` (relative stereo) [Compound I-086, (rac)-((1R,2R,3S,4R)-4-(2-(benzofuran-2-yl)pyrazolo[1,5-a]pyrimidin-7-ylamino)-2,3-dihydroxycyclopentyl)methyl rel-sulfamate], the inhibition at 0.111 µM was 99%. In the case of `NS(=O)(=O)OC[C@H]1C[C@@H](Nc2ccnc3cc(-c4cccc(N5CCCC5=O)c4)nn23)[C@H](O)[C@@H]1O` (relative stereo) [Compound I-087, (rac)-((1R,2R,3S,4R)-2,3-dihydroxy-4-(2-(3-(2-oxopyrrolidin-1-yl)phenyl)pyrazolo[1,5-a]pyrimidin-7-ylamino)cyclopentyl)methyl rel-sulfamate], the inhibition at 0.111 µM was found to be 100%. As for `NS(=O)(=O)OC[C@H]1C[C@@H](Nc2ccnc3cc(-c4cc5ccc(Cl)cc5s4)nn23)[C@H](O)[C@@H]1O` (relative stereo) [Compound I-088, (rac)-((1R,2R,3S,4R)-4-(2-(6-chlorobenzo[b]thiophen-2-yl)pyrazolo[1,5-a]pyrimidin-7-ylamino)-2,3-dihydroxycyclopentyl)methyl rel-sulfamate], the inhibition at 0.111 µM is 97%. Regarding `Cc1cnc2cc(-c3ccccc3)nn2c1N[C@@H]1C[C@H](COS(N)(=O)=O)[C@@H](O)[C@H]1O` (relative stereo) [Compound I-089, (rac)-{(1R,2R,3S,4R)-2,3-dihydroxy-4-[(6-methyl-2-phenylpyrazolo[1,5-a]pyrimidin-7-yl)amino]cyclopentyl}methyl rel-sulfamate], the inhibition at 0.111 µM is 27%. To `CCCOC(C)(C)c1cccc(-c2cc3nccc(N[C@@H]4C[C@H](COS(N)(=O)=O)[C@@H](O)[C@H]4O)n3n2)c1` (relative stereo) [Compound I-090, (rac)-((1R,2R,3S,4R)-2,3-dihydroxy-4-(2-(3-(2-propoxypropan-2-yl)phenyl)pyrazolo[1,5-a]pyrimidin-7-ylamino)cyclopentyl)methyl rel-sulfamate] belongs 100%. Consider `NS(=O)(=O)OC[C@H]1C[C@@H](Nc2ccnc3cc(-c4coc5ccc(Cl)cc45)nn23)[C@H](O)[C@@H]1O` (relative stereo) [Compound I-092, (rac)-((1R,2R,3S,4R)-4-(2-(5-chlorobenzofuran-3-yl)pyrazolo[1,5-a]pyrimidin-7-ylamino)-2,3-dihydroxycyclopentyl)methyl rel-sulfamate], for which the inhibition at 0.111 µM amounted to 100%. To `NS(=O)(=O)OC[C@H]1C[C@@H](Nc2ccnc3cc(-c4ccc5c(c4)oc4ccccc45)nn23)[C@H](O)[C@@H]1O` (relative stereo) [Compound I-093, (rac)-((1R,2R,3S,4R)-4-(2-(dibenzo[b,d]furan-3-yl)pyrazolo[1,5-a]pyrimidin-7-ylamino)-2,3-dihydroxycyclopentyl)methyl rel-sulfamate] belongs 100%; to `CCc1ccc2scc(-c3cc4nccc(N[C@@H]5C[C@H](COS(N)(=O)=O)[C@@H](O)[C@H]5O)n4n3)c2c1` (relative stereo) [Compound I-094, (rac)-((1R,2R,3S,4R)-4-(2-(5-ethylbenzo[b]thiophen-3-yl)pyrazolo[1,5-a]pyrimidin-7-ylamino)-2,3-dihydroxycyclopentyl)methyl rel-sulfamate], 100%; to `CCc1ccc2sc(-c3cc4nccc(N[C@@H]5C[C@H](COS(N)(=O)=O)[C@@H](O)[C@H]5O)n4n3)cc2c1` (relative stereo) [Compound I-095, (rac)-((1R,2R,3S,4R)-4-(2-(5-ethylbenzo[b]thiophen-2-yl)pyrazolo[1,5-a]pyrimidin-7-ylamino)-2,3-dihydroxycyclopentyl)methyl rel-sulfamate], 70%.

Take `COC(=O)c1ccc2c(-c3cc4nccc(N[C@@H]5C[C@H](COS(N)(=O)=O)[C@@H](O)[C@H]5O)n4n3)cccc2c1` (relative stereo) [Compound I-096, (rac)-methyl rel-5-[7-({(1R,2S,3R,4R)-2,3-dihydroxy-4-[(sulfamoyloxy)methyl]cyclopentyl}amino)pyrazolo[1,5-a]pyrimidin-2-yl]-2-naphthoate]: the inhibition at 0.111 µM was 100%. On to `NS(=O)(=O)OC[C@H]1C[C@@H](Nc2ccnc3cc(-c4cccc5cc(C(=O)O)ccc45)nn23)[C@H](O)[C@@H]1O` (relative stereo) [Compound I-099, (rac)-rel-5-[7-({(1R,2S,3R,4R)-2,3-dihydroxy-4-[(sulfamoyloxy)methyl]cyclopentyl}amino)pyrazolo[1,5-a]pyrimidin-2-yl]-2-naphthoic acid], for which the inhibition at 0.111 µM is 100%. The value for `NS(=O)(=O)OC[C@H]1C[C@@H](Nc2ccnc3cc(-c4cncc(-c5ccccc5)n4)nn23)[C@H](O)[C@@H]1O` (relative stereo) [Compound I-121, (rac)-((1R,2R,3S,4R)-2,3-dihydroxy-4-{[2-(6-phenylpyrazin-2-yl)pyrazolo[1,5-a]pyrimidin-7-yl]aminolcyclopentyl)methylrel-sulfamate] was 100%.
